Here are results for two compounds from ChEMBL document CHEMBL1147219, “Hyperatomarin, an antibacterial prenylated phloroglucinol from Hypericumatomarium ssp. degenii” (2003).

Converted amounts (≈) assume the structure as drawn.

A word on the MIC: it is the lowest concentration that inhibits growth of the organism.

Common to all, as to format: functional
Test [1] relates to Micrococcus luteus. Nature of the test: Antibacterial activity against Micrococcus luteus ATCC 4698 after 24 hrs by agar dilution method. The note with it: ATCC 4698, 24 h.
For test [2], the system named is Bacillus subtilis. In words: Antibacterial activity against Bacillus subtilis ATCC 6633 after 24 hrs by agar dilution method. The note with it: ATCC 6633, 24 h. (In agar dilution the substance is mixed into plates at graded concentrations.)
Test [3] concerns Bacillus. Nature of the test: Antibacterial activity against Bacillus IP 5832 after 24 hrs by agar dilution method.
Test [4] concerns Staphylococcus aureus. In words: Antibacterial activity against Staphylococcus aureus ATCC 25923 after 24 hrs by agar dilution method. Particulars: ATCC 25923, 24 h.

As for `CC[C@H]1OC(=O)[C@H](C)[C@@H](O[C@H]2C[C@@](C)(OC)[C@@H](O)[C@H](C)O2)[C@H](C)[C@@H](O[C@@H]2O[C@H](C)C[C@H](N(C)C)[C@H]2O)[C@](C)(O)C[C@@H](C)C(=O)[C@H](C)[C@@H](O)[C@]1(C)O` [ERYTHROMYCIN], the MIC in test [1] is 0.2 µg/mL (≈ 0.273 µM); in test [2], 0.39 µg/mL (≈ 0.531 µM); in test [3], 0.39 µg/mL (≈ 0.531 µM); in test [4], 0.2 µg/mL (≈ 0.273 µM).

`CC(C)=CCC[C@@]1(C)[C@H](CC=C(C)C)C[C@@H]2C(=O)C(C(=O)C(C)C)=C(O)[C@H]1C2=O` [HYPERATOMARIN]: the MIC came out at 1.56 µg/mL (≈ 3.89 µM) in test [1], 3.12 µg/mL (≈ 7.79 µM) in test [2], 1.56 µg/mL (≈ 3.89 µM) in test [3] and 1.56 µg/mL (≈ 3.89 µM) in test [4].
